Measurements from the supplement of paper PMC10307832.

Legend:
Test in all cases: relative viability (nuclei count vs DMSO), 5 days (fraction); higher = more cells survive
TPCA-1 + Bortezomib = compound: C1=CC(=CC=C1C2=CC(=C(S2)NC(=O)N)C(=O)N)F [TPCA-1] + CC(C)C[C@H](NC(=O)[C@H](Cc1ccccc1)NC(=O)c1cnccn1)B(O)O [Bortezomib] (partner 0.002 µM)
Summary of the method: (§1)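 For relative viability, nuclei counts in treated wells were divided by those in vehicle wells. Lung cancer cell lines had been pin-tool dosed in 1536-well plates the day after seeding and cultured for 5 days, then fixed and stained in one step (final 0.05% Triton X-100, 1% formaldehyde, 1 ug/ml Hoechst) and imaged at 4×. Doses were one drug alone or a fixed anchor-drug dose plus five library-drug doses (not always all listed) in √10 steps, and values are duplicate-plate medians.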

Lestaurtinib + Lapatinib = compound: C[C@]12O[C@H](C[C@]1(O)CO)n1c3ccccc3c3c4c(c5c6ccccc6n2c5c31)CNC4=O [Lestaurtinib] + CS(=O)(=O)CCNCc1ccc(-c2ccc3ncnc(Nc4ccc(OCc5cccc(F)c5)c(Cl)c4)c3c2)o1 [Lapatinib] (partner 2 µM)
Summary of the method: as §1

Lestaurtinib + Foretinib = compound: C[C@]12O[C@H](C[C@]1(O)CO)n1c3ccccc3c3c4c(c5c6ccccc6n2c5c31)CNC4=O [Lestaurtinib] + COc1cc2c(Oc3ccc(NC(=O)C4(C(=O)Nc5ccc(F)cc5)CC4)cc3F)ccnc2cc1OCCCN1CCOCC1 [Foretinib] (partner 0.25 µM)
Summary of the method: as §1

[1] = compound: C[C@]12O[C@H](C[C@]1(O)CO)n1c3ccccc3c3c4c(c5c6ccccc6n2c5c31)CNC4=O [Lestaurtinib] + C[C@@H](Oc1cc(-c2cnn(C3CCNCC3)c2)cnc1N)c1c(Cl)ccc(F)c1Cl [Crizotinib] (partner 1 µM)
Summary of the method: as §1

Cell Line	relative viability (TPCA-1 + Bortezomib; first compound 0.04 µM)	relative viability (TPCA-1 + Bortezomib; first compound 0.4 µM)	relative viability (TPCA-1 + Bortezomib; first compound 1.265 µM)	relative viability (TPCA-1 + Bortezomib; first compound 4 µM)	relative viability (Lestaurtinib + Lapatinib; first compound 0.005 µM)	relative viability (Lestaurtinib + Lapatinib; first compound 0.01581 µM)	relative viability (Lestaurtinib + Lapatinib; first compound 0.05 µM)	relative viability (Lestaurtinib + Lapatinib; first compound 0.1581 µM)	relative viability (Lestaurtinib + Lapatinib; first compound 0.5 µM)	relative viability (Lestaurtinib + Foretinib; first compound 0.005 µM)	relative viability (Lestaurtinib + Foretinib; first compound 0.01581 µM)	relative viability (Lestaurtinib + Foretinib; first compound 0.05 µM)	relative viability (Lestaurtinib + Foretinib; first compound 0.1581 µM)	relative viability (Lestaurtinib + Foretinib; first compound 0.5 µM)	relative viability ([1]; first compound 0.005 µM)	relative viability ([1]; first compound 0.01581 µM)	relative viability ([1]; first compound 0.05 µM)	relative viability ([1]; first compound 0.1581 µM)	relative viability ([1]; first compound 0.5 µM)	relative viability (TPCA-1 + Bortezomib; first compound 0.1265 µM)
NCI-H2347	0.945	0.894	0.662	1.16	0.938	0.968	0.871	0.65	0.613	1.18	1.38	0.865	0.98	0.598	0.715	0.854	0.71	0.585	0.545	–
HCC-78	0.437	0.531	0.27	0.281	0.507	1.03	0.54	0.272	0.289	0.51	0.494	0.524	0.545	0.308	0.318	0.396	0.318	0.287	0.267	0.439
COR-L23	1.27	0.983	0.937	0.751	1.08	1.24	–	0.623	0.271	1.03	0.908	0.8	0.825	0.391	0.707	0.763	–	0.489	0.161	0.854
NCI-H1993	1.13	1.14	1.28	0.836	0.805	0.848	0.678	0.595	0.602	0.791	0.771	0.77	0.63	0.535	0.936	0.971	0.819	0.635	0.548	–
NCI-H2405	0.988	1.02	0.92	0.289	1.06	1.14	1.02	0.927	0.428	1.11	1.08	1.05	0.805	0.384	0.852	0.87	0.767	0.698	0.578	0.843
NCI-H2126	1.15	1.07	1.06	1.09	0.821	0.901	0.613	0.81	0.552	1.19	1.31	1.1	1.1	0.926	1.06	1.1	0.835	0.973	0.682	1.04
NCI-H1734	1.02	1.12	0.938	0.554	1.09	1.22	0.808	0.895	0.199	0.891	0.951	0.705	0.383	0.179	0.741	0.649	0.538	0.424	0.205	0.816
A-427	1.05	1.08	0.976	1.07	1.03	1.06	1	0.711	0.225	1.03	1.04	0.668	0.4	0.154	0.999	0.842	0.501	0.411	0.125	0.981
RERF-LC-KJ	1.32	0.857	0.916	0.998	0.868	0.839	0.731	0.758	0.704	0.914	1.04	0.762	0.749	0.816	0.856	0.969	0.674	0.799	0.6	1.09
NCI-H727	1.07	0.923	0.674	0.696	1.21	0.986	0.78	0.813	0.263	1.05	0.991	1.05	0.756	0.33	1.26	0.911	0.718	0.613	0.323	0.707
LCLC-97TM1	0.654	0.608	0.475	0.0995	1.18	1.18	0.767	0.196	0.163	0.925	1.08	0.556	0.462	0.238	0.382	0.293	0.241	0.259	0.149	0.654
BEN	1.17	0.805	0.999	0.587	0.743	0.959	0.586	0.408	0.255	0.728	0.803	0.478	0.559	0.224	0.902	1.1	0.879	0.687	0.29	0.53
NCI-H2023	1.07	1.11	0.845	0.386	0.987	0.753	0.503	0.22	0.0798	1.02	0.758	0.843	1.01	0.164	0.635	0.619	0.723	0.654	0.113	0.941
LC-2-ad	1.11	0.94	1.04	0.371	1.17	1.07	0.62	0.266	0.19	0.946	0.903	0.817	0.647	0.324	0.467	0.325	0.433	0.366	0.251	1.01
ABC-1	0.369	0.291	0.297	0.293	1.27	1.32	1.06	1.01	1.15	1.04	1.33	0.991	0.962	0.204	1.15	1.58	0.92	0.882	0.26	0.225
NCI-H647	1.26	0.954	0.751	0.418	0.837	0.735	0.217	0.146	0.114	1.41	1.15	0.705	0.478	0.16	0.93	1.12	0.624	0.225	0.141	0.809
NCI-H1755	0.948	1.05	0.881	0.832	1.01	1.1	0.907	0.39	0.232	0.891	0.938	0.788	0.494	0.412	0.865	0.645	0.724	0.438	0.268	0.9
EPLC-272H	0.96	0.962	0.87	0.821	0.87	1.06	0.616	0.513	0.5	0.542	0.538	0.282	0.325	0.126	0.939	0.65	0.458	0.574	0.581	0.974
NCI-H1437	0.586	0.577	0.367	0.504	0.775	0.866	0.529	0.414	0.114	1.35	1.4	1.29	1.17	1.07	0.863	0.897	0.906	0.887	0.674	0.496
EKVX	0.952	1.19	0.955	0.601	0.192	0.221	0.195	0.194	0.198	0.681	0.752	0.75	0.925	0.656	0.855	1.11	0.945	0.892	0.551	0.896
NCI-H1651	0.909	0.917	0.891	0.649	0.756	0.93	0.715	0.636	0.211	0.85	0.8	0.844	0.865	0.53	0.897	0.997	0.837	0.858	0.551	0.927
HCC-15	1.21	1.06	1.01	0.817	0.931	1.05	0.8	0.545	0.135	1.11	1.13	0.989	0.744	0.139	1.04	1.01	0.595	0.628	0.291	0.944
NCI-H23	1.12	0.909	1.11	0.512	1.21	1.19	0.776	0.888	0.212	1.02	1.22	0.837	0.635	0.321	0.466	0.495	0.401	0.546	0.233	0.935
NCI-H596	1.07	1.07	–	0.976	1.22	1.03	0.973	1.26	0.843	0.724	0.946	0.82	1.1	0.671	0.851	1.05	0.805	1.02	0.923	0.976
NCI-H1563	0.924	0.836	0.741	0.793	1.1	0.947	1.06	1.05	0.776	0.977	0.96	0.978	0.97	0.991	0.913	0.921	0.837	0.907	0.794	0.875
NCI-H460	1.11	1.09	0.839	0.493	0.869	1.33	0.23	0.415	0.0473	0.96	1.11	0.951	1.28	0.9	1.16	0.905	0.448	0.676	0.516	0.877
HCC-366	1.07	1.13	0.92	0.647	1.16	1.16	0.79	1	0.0272	0.939	0.924	0.994	1.03	0.536	0.711	0.649	0.418	0.758	0.219	0.94
